This note sets out measurements from patent US12570675B2, “Boronic acid compounds” (LG CHEM, LTD., priority 2020, dated 2026).

In the assay the target is Proteasome chymotrypsin-like activity (S26 protein from RPMI8226 cells) (Homo sapiens, UniProt P28074). The assay is classed as biochemical. The settings on record: S26 protein from RPMI8226 cell extract 2 ug/well, substrate 20 uM, 37° C., 90 minutes; read-out: Proteasome chymotrypsin-like activity inhibition IC50. The procedure: The abilities to inhibit the proteasome activity of the compounds described in the Examples of the present invention and boronic acid drugs were evaluated as follows.
Sequence of Proteasome chymotrypsin-like activity (S26 protein from RPMI8226 cells) (P28074 60-263 limits assumed): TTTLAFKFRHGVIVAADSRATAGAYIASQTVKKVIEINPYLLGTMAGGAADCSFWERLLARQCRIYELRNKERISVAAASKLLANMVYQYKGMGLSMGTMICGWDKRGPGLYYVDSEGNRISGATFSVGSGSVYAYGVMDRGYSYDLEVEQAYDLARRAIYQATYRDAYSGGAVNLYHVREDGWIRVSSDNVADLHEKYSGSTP
RPMI8226 cells, which is a multiple myeloma cell line, were cultured and then separated by a centrifuge, and washed twice with phosphate buffered saline (PBS). 20 mM of a tris-HCl (pH 8.0) buffer solution was added to the washed cells, and the cells were disrupted by a homogenizer and centrifuged to obtain S26 protein from the supernatant. Suc-Leu-Leu-Val-Tyr-AMC, for a fluorogenic substrate for the chymotrypsin-like activity of the proteasome, and Z-Leu-Leu-Glu-AMC, for a fluorogenic substrate for the caspase-like activity, were purchased from Calbiochem, EMD Millipore and used. Into each well of a 96-well plate (opaque, black round bottom), 20 ul of the S26 protein (final RPMI8226 cell extract concentration: 2 ug/well), 10 ul of S26 proteasome inhibitor serially diluted from 10 uM (final DMSO concentration: 0.5%), and 20 ul of the fluorogenic substrate for the proteasome chymotrypsin-like or caspase-like activity (final concentration: 20 uM) were added and mixed and allowed to react in a 37° C. incubator for 90 minutes. The fluorescence of the fluorogenic substrate was measured by FlexStation II Fluorometer (Molecular Devices). The fluorescence inhibited by the compound diluted at each concentration was measured as the relative percentage value for the amount obtained from the treatment only with the S26 protein and the fluorogenic substrate. IC50 (inhibitory concentration 50) was expressed in terms of a concentration that inhibits 50% of the maximum fluorescence induced by the fluorogenic substrate.
Usually IC50 stands for the concentration needed to halve the response being measured. As for `CC(C)C[C@H](NC(=O)C1(Cc2ccccc2)CC(CNC(=O)c2ccnn2C2CCOCC2)=NO1)B(O)O` (stereo partly drawn) [Example 197, ((1R)-1-(5-benzyl-3-((1-(tetrahydro-2H-pyran-4-yl)-1H-pyrazol-5-carboxamido)methyl)-4,5-dihydroisoxazol-5-carboxamido)-3-methylbutyl)boronic acid], the IC50 was less than 10 nM. As for `CC(C)C[C@H](NC(=O)C1CC(c2ccc(-c3ccccc3)cc2)=NO1)B(O)O` (stereo partly drawn) [Example 27, ((1R)-1-(3-([1,1′-biphenyl]-4-yl)-4,5-dihydroisoxazol-5-carboxamido)-3-methylbutyl)boronic acid], the figure is less than 250 nM. To `CC(C)[C@H](NC(=O)C1(Cc2ccccc2)CC(CNC(=O)c2cccc3ccccc23)=NO1)B(O)O` (stereo partly drawn) [Example 304, ((1R)-1-(3-((1-naphthamido)methyl)-5-benzyl-4,5-dihydroisoxazol-5-carboxamido)-2-methylpropyl)boronic acid] belongs less than 10 nM; to `CC(C)C[C@H](NC(=O)C1(Cc2cccc(Cl)c2)CC(CNC(=O)c2cc(C(C)C)on2)=NO1)B(O)O` (stereo partly drawn) [Example 223, ((1R)-1-(5-(3-chlorobenzyl)-3-((5-isopropylisoxazol-3-carboxamido)methyl)-4,5-dihydroisoxazol-5-carboxamido)-3-methylbutyl)boronic acid], less than 10 nM. As for `COc1cccc(CC2(C(=O)N[C@@H](CC(C)C)B(O)O)CC(CNC(=O)c3cc(C)nn3C3CCCC3)=NO2)c1` (stereo partly drawn) [Example 240, ((1R)-1-(3-((1-cyclopentyl-3-methyl-1H-pyrazol-5-carboxamido)methyl)-5-(3-methoxybenzyl)-4,5-dihydroisoxazol-5-carboxamido)-3-methylbutyl)boronic acid], the figure is less than 10 nM. For the compound `COc1cccc(CC2(C(=O)N[C@@H](CC(C)C)B(O)O)CC(CNC(=O)c3ccnn3C(C)C)=NO2)c1` (stereo partly drawn) [Example 239, ((1R)-1-(3-((1-isopropyl-1H-pyrazol-5-carboxamido)methyl)-5-(3-methoxybenzyl)-4,5-dihydroisoxazol-5-carboxamido)-3-methylbutyl)boronic acid], the IC50 was less than 10 nM.

Regarding `CC(C)C[C@H](NC(=O)C1(Cc2ccccc2)CC(C(C)(C)NC(=O)c2cccn3ccnc23)=NO1)B(O)O` (stereo partly drawn) [Example 158, ((1R)-1-(5-benzyl-3-(2-(imidazo[1,2-a]pyridin-8-carboxamido)propan-2-yl)-4,5-dihydroisoxazol-5-carboxamido)-3-methylbutyl)boronic acid], the IC50 was less than 100 nM.

Take `CC(C)C[C@H](NC(=O)C1CC(C2CCCCC2)=NO1)B(O)O` (stereo partly drawn) [Example 9, ((1R)-1-(3-cyclohexyl-4,5-dihydroisoxazol-5-carboxamido)-3-methylbutyl)boronic acid]: the IC50 is less than 500 nM. To `CC(C)C[C@H](NC(=O)C1(Cc2ccccc2)CC(CN(C)C(=O)c2nccc3ccccc23)=NO1)B(O)O` (stereo partly drawn) [Example 99, ((1R)-1-(5-benzyl-3-((N-methylisoquinolin-1-carboxamido)methyl)-4,5-dihydroisoxazol-5-carboxamido)-3-methylbutyl)boronic acid] belongs less than 25 nM; to `CC(C)C[C@H](NC(=O)C1CC(c2nccc3ccccc23)=NO1)B(O)O` (stereo partly drawn) [Example 12, ((1R)-1-(3-(isoquinolin-1-yl)-4,5-dihydroisoxazol-5-carboxamido)-3-methylbutyl)boronic acid], less than 250 nM. As for `Cc1cccc(C(=O)NCC2=NOC(Cc3ccccc3)(C(=O)N[C@@H](CC(C)C)B(O)O)C2)c1` (some centres unmarked) [Example 307], the figure is less than 10 nM; as for `CCC1(C(=O)N[C@@H](CC(C)C)B(O)O)CC(c2ccccc2)=NO1` (stereo partly drawn) [Example 4, ((1R)-1-(5-ethyl-3-phenyl-4,5-dihydroisoxazol-5-carboxamido)-3-methylbutyl)boronic acid], more than 1000 nM; as for `CC(C)C[C@H](NC(=O)C1CC(CNC(=O)c2ccc(C(C)(C)C)cc2)=NO1)B(O)O` (stereo partly drawn) [Example 70, ((1R)-1-(3-((4-(tert-butyl)benzamido)methyl)-4,5-dihydroisoxazol-5-carboxamido)-3-methylbutyl)boronic acid], less than 100 nM.

For the compound `CC(C)C[C@H](NC(=O)C1CC(c2ccc(-c3ccccn3)cc2)=NO1)B(O)O` (stereo partly drawn) [Example 26, ((1R)-3-methyl-1-(3-(4-(pyridin-2-yl)phenyl)-4,5-dihydroisoxazol-5-carboxamido)butyl)boronic acid], the IC50 is less than 50 nM. To `CC(C)C[C@H](NC(=O)C1(Cc2ccccc2)CC(CNC(=O)c2cccc(C#N)c2)=NO1)B(O)O` (some centres unmarked) [Example 316] belongs less than 10 nM; to `CC(C)C[C@H](NC(=O)C1CC(Cc2ccccc2)=NO1)B(O)O` (stereo partly drawn) [Example 8, ((1R)-1-(3-benzyl-4,5-dihydroisoxazol-5-carboxamido)-3-methylbutyl)boronic acid], less than 250 nM; to `CC(C)C[C@H](NC(=O)C1(Cc2ccccc2)CC(CNC(=O)c2ccc(-c3ccccc3)cc2)=NO1)B(O)O` (stereo partly drawn) [Example 94, ((1R)-1-(3-([1,1′-biphenyl]-4-carboxamidomethyl)-5-benzyl-4,5-dihydroisoxazol-5-carboxamido)-3-methylbutyl)boronic acid], less than 10 nM.

As for `O=C(NCC1=NOC(Cc2ccccc2)(C(=O)N[C@@H](Cc2ccccc2)B(O)O)C1)c1cccc2nccn12` (stereo partly drawn) [Example 302, ((1R)-1-(5-benzyl-3-((imidazo[1,2-a]pyridin-5-carboxamido)methyl)-4,5-dihydroisoxazol-5-carboxamido)-2-phenylethyl)boronic acid], the IC50 is less than 10 nM.

Take `CC(C)C[C@H](NC(=O)C1(Cc2ccccc2)CC(CNC(=O)c2cccc(-c3ccccc3)n2)=NO1)B(O)O` (stereo partly drawn) [Example 96, ((1R)-1-(5-benzyl-3-((6-phenylpicolinamido)methyl)-4,5-dihydroisoxazol-5-carboxamido)-3-methylbutyl)boronic acid]: the IC50 was less than 10 nM. As for `CC(=O)Nc1ccc(C2=NOC(C(=O)N[C@@H](CC(C)C)B(O)O)C2)cc1` (stereo partly drawn) [Example 16, ((1R)-1-(3-(4-acetamidophenyl)-4,5-dihydroisoxazol-5-carboxamido)-3-methylbutyl)boronic acid], the figure is less than 250 nM. To `CC(C)C[C@H](NC(=O)C1CC(c2cc(Cl)ccc2Cl)=NO1)B(O)O` (stereo partly drawn) [Example 3, ((1R)-1-(3-(2,5-dichlorophenyl)-4,5-dihydroisoxazol-5-carboxamido)-3-methylbutyl)boronic acid] belongs less than 250 nM; to `Cc1cccc(CC2(C(=O)N[C@@H](CC(C)C)B(O)O)CC(CNC(=O)c3cc(C)nn3C(C)C)=NO2)c1` (stereo partly drawn) [Example 234, ((1R)-1-(3-((1-isopropyl-3-methyl-1H-pyrazol-5-carboxamido)methyl)-5-(3-methylbenzyl)-4,5-dihydroisoxazol-5-carboxamido)-3-methylbutyl)boronic acid], less than 10 nM; to `O=C(N[C@@H](Cc1ccccc1)B(O)O)C1(Cc2ccccc2)CC(COc2ccc3ccccc3c2)=NO1` (stereo partly drawn) [Example 263, ((1R)-1-(5-benzyl-3-((naphthalen-2-yloxy)methyl)-4,5-dihydroisoxazol-5-carboxamido)-2-phenylethyl)boronic acid], less than 50 nM.

Turning to `Cc1cn2cccc(C(=O)NCC3=NOC(Cc4ccccc4)(C(=O)N[C@@H](CC(C)C)B(O)O)C3)c2n1` (stereo partly drawn) [Example 139, ((1R)-1-(5-benzyl-3-((2-methylimidazo[1,2-a]pyridin-8-carboxamido)methyl)-4,5-dihydroisoxazol-5-carboxamido)-3-methylbutyl)boronic acid], the IC50 was less than 10 nM.

For the compound `CC(C)C[C@H](NC(=O)C1(Cc2cccc(Cl)c2)CC(CNC(=O)c2cccn3ccnc23)=NO1)B(O)O` (stereo partly drawn) [Example 177, ((1R)-1-(5-(3-chlorobenzyl)-3-((imidazo[1,2-a]pyridin-8-carboxamido)methyl)-4,5-dihydroisoxazol-5-carboxamido)-3-methylbutyl)boronic acid], the IC50 is less than 10 nM. As for `O=C(N[C@@H](Cc1ccccc1)B(O)O)C1(Cc2ccccc2)CC(COc2cccc3ccccc23)=NO1` (stereo partly drawn) [Example 279, ((1R)-1-(5-benzyl-3-((naphthalen-1-yloxy)methyl)-4,5-dihydroisoxazol-5-carboxamido)-2-phenylethyl)boronic acid], the figure is less than 10 nM; as for `COc1cccc(CC2(C(=O)N[C@@H](CC(C)C)B(O)O)CC(CNC(=O)c3cc(C(C)(C)C)nn3C(C)C)=NO2)c1` (stereo partly drawn) [Example 231, ((1R)-1-(3-((3-(tert-butyl)-1-isopropyl-1H-pyrazol-5-carboxamido)methyl)-5-(3-methoxybenzyl)-4,5-dihydroisoxazol-5-carboxamido)-3-methylbutyl)boronic acid], less than 10 nM. To `CC(C)C[C@H](NC(=O)C1CC(c2cccc(Oc3ccccc3)c2)=NO1)B(O)O` (stereo partly drawn) [Example 40, ((1R)-3-methyl-1-(3-(3-phenoxyphenyl)-4,5-dihydroisoxazol-5-carboxamido)butyl)boronic acid] belongs less than 500 nM. As for `CC(C)C[C@H](NC(=O)C1CC(c2ccc(-c3cccc(F)c3)cn2)=NO1)B(O)O` (stereo partly drawn) [Example 28, ((1R)-1-(3-(5-(3-fluorophenyl)pyridin-2-yl)-4,5-dihydroisoxazol-5-carboxamido)-3-methylbutyl)boronic acid], the figure is less than 250 nM.
